# In ChEMBL document CHEMBL1126063, “A novel probe for the cannabinoid receptor” (J Med Chem, 1992):
# What was measured:
# Cannabinoid receptor = Cannabinoid receptor (Rattus norvegicus, UniProt Q9QZN9+P20272); assay: Compound was evaluated for the competitive inhibition of [3H]3-(1,1-Dimethyl-heptyl)-9-hydroxymethyl-6,6-dimethyl-6a,7,8,9,10,10a-hexahydro-6H-benzo[c]chromen-1-ol to cannabinoid receptor from synaptosomal membranes of rat whole brain
# Columba livia [1] = assay: Effective dose injected to pigeons in drug discrimination test at a given period of 1.5 hours; type: functional; conditions: in Columbidae
# Columba livia [2] = assay: Effective dose injected to pigeons in drug discrimination test at a given period of 4.5 hours; type: functional; conditions: in Columbidae
# Columba livia [3] = assay: Effective dose injected to pigeons in drug discrimination test at a given period of 9.0 hours; type: functional; conditions: in Columbidae
compound,measurement,setting,value
CCCCCCC(C)(C)c1cc(O)c2c(c1)OC(C)(C)[C@@H]1CC=C(CO)CC21 (some centres not stated),Ki,Cannabinoid receptor,0.181 nM
same,ED50,Columba livia [1],4 µg/kg
same,ED50,Columba livia [2],2 µg/kg
same,ED50,Columba livia [3],2 µg/kg
CCCCCCC(C)(C)c1cc(O)c2c(c1)OC(C)(C)[C@@H]1CC[C@@H](CO)CC21 (some centres not stated),Ki,Cannabinoid receptor,0.045 nM
same,ED50,Columba livia [1],5 µg/kg
same,ED50,Columba livia [2],2 µg/kg
same,ED50,Columba livia [3],3 µg/kg
CCCCCCC(C)(C)c1cc(O)c2c(c1)OC(C)(C)C1CC=C(CO)CC21 (configuration not stated),Ki,Cannabinoid receptor,466 nM
CCCCCc1cc(O)c2c(c1)OC(C)(C)[C@@H]1CCC(C)=C[C@@H]21 [DRONABINOL],ED50,Columba livia [1],160 µg/kg
same,ED50,Columba livia [2],250 µg/kg
same,ED50,Columba livia [3],1210 µg/kg
